Measured values as given in patent US11634381B2, “RUNX2 transcription factor inhibitors and uses thereof” (University of Maryland, Baltimore, priority 2015, dated 2023).

Tests used:
[1] = Maximum tolerated dose (MTD) test; type: in vivo; settings: up to 20 mg/kg, 2 weeks, athymic nude mice
Excerpt: Animal maintenance and experimental protocols are in accordance with the guidelines of the University of Maryland's Institutional Animal Care and Use Committee.

[2] = tested on: MCF10A non-malignant mammary epithelial cells; test: Mammosphere formation of non-malignant cells; type: cell-based, human
[3] = tested on: MCF7-tet-off-Luc (-Doxy) and 231-Luc cells; test: In vivo lung metastasis assay (BLI); set-up: species or system NSG mice; settings: 10 mg/kg
Protocol: For in vivo lung metastasis assay, MCF7-tet-off-Luc cells were grown for 3 days in the absence of Doxycyclin (−Doxy) and injected into the tail vein of the 8 week-old female NSG mice (1×10^6 cells/200 μl of PBS). After inoculation, the mice were randomly assigned to vehicle control and treatment groups. Vehicle (10% DMSO/90% PBS) and compound 1 (10 mg/kg) were injected i.p. 2 hrs after inoculation. The retention of the cells in the lung was monitored by noninvasive bioluminescence imaging for 24 hrs. For luciferase detection, 150 mg/mL D-luciferin (Caliper Life Sciences) in PBS was injected i.p. before imaging. Photometric measurement of metastasis was done by living Image software (Xenogen). In separate groups of mice, 231-Luc cells (1×10^6/200 μl of PBS) were injected, and the metastasis burden in the lung was quantified for 3 weeks.

mammary tumors = test: MMTV-PyMT transgenic mouse model; type: in vivo, MMTV-PyMT mice
Protocol: For the MMTV polyoma middle T antigen (PyMT) mouse model, female mice were purchased from Jackson Laboratory. As mice developed first palpable mammary tumors after 5 weeks of age, mice were randomly assigned to 4 treatment groups at 6 weeks of age and received i.p. injections of compound 1 (1, 5 and 20 mg/kg/group) or equivalent volumes of vehicle (10% DMSO/90% PBS) (200 μl) twice a week. Palpable tumors were monitored every 1 to 2 days until 12 weeks of age to determine tumor incidence (number of tumors per mouse) and onset (the age of palpable tumors). Tumor weight was quantified at the final day after mice were euthanized and tumors were excised. Tumor volume [(length×width^2)/2] was measured by caliper.

[4] = tested on: MCF7-tet-off or MDA-231 cells; test: Calcein-AM viability assay; type: cell-based, human; settings: over 24 hrs
Protocol: In FIGS. 9A-9C compound 1 was added at the initial day of cell plating. Tumorspheres of MCF7-tet-off (−Doxy) cells were photographed for 18 days at ×40 and ×100 magnifications (FIG. 9A), and counted at the final day at ×40 magnification (FIG. 9C). Tumorspheres of MDA-231, MDA-468 and MCF7 cells at day 7 are shown (FIG. 9B). Spheres of MDA-231 and MCF7 cells were counted at day 18 with ×20 magnification. Spheres of vehicle-treated MDA-468 cells were counted at day 7 with ×20 magnification as they became fragile and disrupted 7 days after incubation. In FIG. 9C sphere number (No.) was counted from 9 fields per well. Data presented as mean±SD. Experiments were done in triplicate and repeated three times. *, P<0.05 compared to +Doxy; ^#, P<0.05 compared to −Doxy with vehicle treatment. Box, RUNX2 induction upon Doxy removal from MCF7-tet-off cells (−D). In FIG. 9D to ensure robust sphere formation, compound 1 was added 4 days after cell plating (D4+), and cells were further incubated for 5 days (D5) or for 7 days (D7). In FIG. 9E the cellular invasive ability of MCF7-tet-off cells (left) was evaluated by the 96 Well BME Cell Invasion Assay and xCELLigence systems in vitro, respectively. In parallel, similar amount of cells were plated in separate plates and treated with compound 1 for 24 hrs, and Calcein-AM assay was performed (right). […]

COX-2 and NF-κb promoter = test: Luciferase reporter assay of promoters without Runt binding sequences; type: cell-based, human; settings: MCF7-RUNX2 and MCF7-Empty cells, 0˜50 mM, 24 hrs
Protocol: (§1) Cells were plated in 96-well plates (30,000 cells/well) and incubated overnight. Cells were co-transfected with indicated luciferase-reporter plasmids (25 ng/well) and pSV-Renilla-Luc (Promega) (15 ng/well) for 6 hrs and compound 1 ([…]) was further treated for 18-48 hrs. COX-2 (P2-274)-Luc (−170bp˜+104bp) and control plasmids (PXP2-Luc) were kindly provided byDr. Miguel A. Iñiguez (Universidad Autónoma de Madrid, Spain), and pNF-kb-Luc was from Dr. Hancai Dan (University of Maryland). Luciferase assay was performed using the Dual-Glo Luciferase Assay Systems as per manufacturer's recommendation (Promega).

[5] = tested on: RUNX2 transcriptional activity; test: Luciferase-promoter reporter assay of RUNX2 target genes; type: cell-based, human
Protocol: as §1

Br-001 tumor = test: TNBC-PDX Br-001 model; type: in vivo, nude mice; settings: 10 mg/kg
Protocol: For the PDX models, Br-001 tumor fragments derived from a patient with TNBC (University of Maryland, Translational Core Facility) were inoculated subcutaneously in female NOD scid gamma (NSG) mice (P1). After P1 tumors were grown, tumors were excised, fragmented and inoculated to a new group of NSG mice (P2). After P2 tumors were grown, they were excised, fragmented, and inoculated into nude mice (P3). When the size of the tumors reached 200˜250 mm^3, mice were randomized into two groups, and received i.p. injection of vehicle or compound 1 (10 mg/kg) twice a week for 11 days.

Which results are given for `O=C(O)C1C2C=CC(C2)C1C(=O)Nc1ccc(Cl)c(Cl)c1` (centres unmarked) [compound 1, 3-(N-(3,4-dichlorophenyl)carbamoyl)-5-norbornene-2-carboxylic acid]?
influence on body weight or general health [1]: no detectable influence; mammosphere formation [2]: did not have a significant influence; body weight and general health ([3]; NSG mice): did not significantly decrease body weight; colonization and outgrowth in the lung versus vehicle ([3]; 231-Luc cells, 3 weeks): significantly lower; metastatic homing to the mouse lungs ([3]; MCF7-tet-off-Luc (-Doxy) cells): no influence; lung retention of the cells ([3]; MCF7-tet-off-Luc (-Doxy) cells, 24 hrs): significantly reduced; tumor incidence per mouse at the final day (mean±SEM) (mammary tumors; 1 mg/Kg): 4.14±0.88; tumor onset, Frequency of mode (mammary tumors; 1 mg/kg): 8; tumor onset, Mode (mammary tumors; 1 mg/kg): 43; tumor onset, range (mammary tumors; 1 mg/kg): 15˜45; mice with less than 3 tumors (mammary tumors; 5 mg/Kg): 40%; tumor incidence per mouse at the final day (mean±SEM) (mammary tumors; 5 mg/Kg): 3.05±2.57; tumor onset, Frequency of mode (mammary tumors; 5 mg/kg): 11; tumor onset, Mode (mammary tumors; 5 mg/kg): 43; tumor onset, range (mammary tumors; 5 mg/kg): 1˜45; fraction of mice with over 6 tumors (mammary tumors; 20 mg/Kg): no mice; mice with less than 3 tumors (mammary tumors; 20 mg/Kg): 55%; tumor incidence per mouse at the final day (mean±SEM) (mammary tumors; 20 mg/Kg): 2.57±0.72; tumor onset, Frequency of mode (mammary tumors; 20 mg/kg): 9; tumor onset, Mode (mammary tumors; 20 mg/kg): 40; tumor onset, range (mammary tumors; 20 mg/kg): 22˜45; tumor weight (mammary tumors; 1, 5, 20 mg/Kg): reduction; staining of Ki67 in tumor sections versus control mice (mammary tumors; IHC): much weaker; onset of the tumors (mammary tumors; i.p., up to 20 mg/kg, 45 days): significantly delayed; body weight and general health (mammary tumors; up to 20 mg/kg, MMTV-PyMT mice): did not significantly decrease body weight; viability [4]: little effect; COX-2 (P2-274)-Luc or pNF-κb-Luc promoter activities (COX-2 and NF-κb promoter): no inhibitory effect; MMP13 promoter activity ([5]; BT474 cells that do not express RUNX2, 48 hrs): did not attenuate; repression of MMP13 promoter-Luc activity ([5]; MCF7-RUNX2 cells): about 50%; MMP13 promoter activity ([5]; MDA-231 cells that express RUNX2, 48 hrs): decreased significantly; promoter-Luc activities of control cells ([5]; T47D-Empty and MCF7-Empty): little effect; promoter-luciferase activities of MMP13, VEGF and OC ([5]; T47D-RUNX2 and MCF7-RUNX2 cells, 48 hrs): dramatic decrease; RUNX2-repressed p21 promoter activity ([5]; T47D-RUNX2 cells): reactivated; p6xOSE2-Luc activity ([5]; T47D-RUNX2 cells): slightly but significantly reduced; MMP13 promoter-Luc activity ([5]; T47D-RUNX2 cells, 2 μM): almost completely blocked; Ki-67 expression (Br-001 tumor; i.p.): markedly reduced; tumor volume (Br-001 tumor; i.p., 11 days): significant decrease; body weight and general health (Br-001 tumor; nude mice): did not significantly decrease body weight
